# Assay results: patent US9012443B2 (Amgen Inc., priority 2011, dated 2015)
# Structures can show the parent of a compound that is named as a salt.
# How the values were obtained:
# Nav 1.7 [1] = target: T1, Nav 1.7 (Homo sapiens (Human), UniProt Q15858); assay: Nav 1.7 IWQ in vitro assay (IonWorks Quattro population patch-clamp); type: cell-based; settings: for IC50: 293 cells stably transfected with Nav 1.7, second part of table, read-out: Nav1.7 IWQ IC50 IP
# How it was run: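 HEK293 cells stably expressing Nav 1.7, recorded by automated population patch-clamp with a train of depolarizations producing increasing inactivation. Single compound concentration added during 3–8 min unclamped period, then same protocol repeated. Leak-corrected current at 26th pulse to −20 mV gave percent block (duplicate); IC50 fitted from concentration–block curves.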
# Nav 1.7 [2] = target: T1, Nav 1.7; assay: Nav 1.7 in vitro PX assay (PatchXpress whole cell voltage clamp); type: cell-based; settings: 293 cells, human Nav1.7, partially inactivated state; read-out: Nav1.7 PX IC50 IP
# How it was run: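 HEK293 cells stably expressing human Nav1.7, whole-cell voltage clamp on PatchXpress, held at potential giving 20–50% inactivation; current elicited by 20 msec pulse to −10 mV.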
# T1 sequence (Q15858 whole entry): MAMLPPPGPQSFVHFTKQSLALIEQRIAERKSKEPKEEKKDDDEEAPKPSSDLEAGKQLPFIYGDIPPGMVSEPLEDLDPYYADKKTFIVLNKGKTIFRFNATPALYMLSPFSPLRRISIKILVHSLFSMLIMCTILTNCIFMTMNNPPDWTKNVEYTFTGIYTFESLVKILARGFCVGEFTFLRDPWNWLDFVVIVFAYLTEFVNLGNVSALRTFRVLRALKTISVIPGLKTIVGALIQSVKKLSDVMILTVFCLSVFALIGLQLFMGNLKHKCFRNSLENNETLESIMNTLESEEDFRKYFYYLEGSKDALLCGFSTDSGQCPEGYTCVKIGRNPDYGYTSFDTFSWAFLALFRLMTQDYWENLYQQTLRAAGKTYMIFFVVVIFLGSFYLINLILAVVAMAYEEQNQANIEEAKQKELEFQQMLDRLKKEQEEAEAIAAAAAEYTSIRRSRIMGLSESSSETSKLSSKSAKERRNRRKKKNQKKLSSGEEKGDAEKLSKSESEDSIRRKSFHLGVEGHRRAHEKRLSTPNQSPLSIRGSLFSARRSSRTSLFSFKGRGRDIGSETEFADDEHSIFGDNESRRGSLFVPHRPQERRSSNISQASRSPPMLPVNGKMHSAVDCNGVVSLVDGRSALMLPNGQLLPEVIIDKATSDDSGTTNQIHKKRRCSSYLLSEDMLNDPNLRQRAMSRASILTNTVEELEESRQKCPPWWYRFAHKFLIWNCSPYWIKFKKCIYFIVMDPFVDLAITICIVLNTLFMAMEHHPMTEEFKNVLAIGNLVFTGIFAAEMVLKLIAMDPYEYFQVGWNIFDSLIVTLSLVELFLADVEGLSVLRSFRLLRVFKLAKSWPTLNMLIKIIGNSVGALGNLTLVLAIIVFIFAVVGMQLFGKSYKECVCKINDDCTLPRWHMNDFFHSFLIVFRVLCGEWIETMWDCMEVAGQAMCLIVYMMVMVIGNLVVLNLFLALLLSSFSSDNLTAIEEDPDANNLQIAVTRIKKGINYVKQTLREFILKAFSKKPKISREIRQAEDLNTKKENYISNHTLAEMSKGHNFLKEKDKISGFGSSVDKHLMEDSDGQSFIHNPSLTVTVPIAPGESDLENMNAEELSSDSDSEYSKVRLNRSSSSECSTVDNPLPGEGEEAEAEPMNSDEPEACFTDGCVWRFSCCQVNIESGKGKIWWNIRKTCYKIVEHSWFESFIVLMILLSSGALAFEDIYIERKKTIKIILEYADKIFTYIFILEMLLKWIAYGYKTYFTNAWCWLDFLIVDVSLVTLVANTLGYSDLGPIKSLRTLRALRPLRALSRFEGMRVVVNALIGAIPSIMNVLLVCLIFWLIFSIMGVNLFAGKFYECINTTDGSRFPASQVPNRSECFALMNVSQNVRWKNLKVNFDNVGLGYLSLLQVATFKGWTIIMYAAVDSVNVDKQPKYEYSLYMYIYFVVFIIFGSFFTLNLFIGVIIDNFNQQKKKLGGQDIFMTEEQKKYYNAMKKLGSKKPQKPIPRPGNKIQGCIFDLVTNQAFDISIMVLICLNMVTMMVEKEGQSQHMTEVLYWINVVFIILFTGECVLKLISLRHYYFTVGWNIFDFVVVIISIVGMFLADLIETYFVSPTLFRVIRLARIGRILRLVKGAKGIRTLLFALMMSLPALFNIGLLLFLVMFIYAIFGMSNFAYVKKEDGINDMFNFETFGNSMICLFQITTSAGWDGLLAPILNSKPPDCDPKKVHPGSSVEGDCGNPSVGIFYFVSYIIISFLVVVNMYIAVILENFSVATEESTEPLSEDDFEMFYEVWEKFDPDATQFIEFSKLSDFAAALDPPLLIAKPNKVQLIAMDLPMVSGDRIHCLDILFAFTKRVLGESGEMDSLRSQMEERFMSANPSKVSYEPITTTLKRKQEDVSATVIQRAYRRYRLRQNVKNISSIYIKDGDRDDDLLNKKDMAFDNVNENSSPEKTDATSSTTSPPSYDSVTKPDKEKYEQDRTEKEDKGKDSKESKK
SMILES,IC50 (Nav 1.7 [1]),IC50 (Nav 1.7 [2]),Nav1.7 Single Point Data IWQ (at […]) (%) (Nav 1.7 [1]; at […])
"COc1cc(C#N)ccc1-c1nccc2cc(S(=O)(=O)Nc3ccncn3)ccc12 [Example 206, 1-(4-CYANO-2-METHOXYPHENYL)-N-(PYRIMIDIN-4-YL)ISOQUINOLINE-6-SULFONAMIDE]",110 nM,4420 nM,–
O=C(c1ccccc1)N1CCCC1c1cccc2cc(S(=O)(=O)Nc3nccs3)ccc12 (stereo not shown) [Example 101],1160 nM,11800 nM,–
"COc1cc(C(F)(F)F)ccc1-c1nccc2cc(S(=O)(=O)Nc3ncccn3)ccc12 [Example 188, 1-(2-METHOXY-4-(TRIFLUOROMETHYL)PHENYL)-N-(PYRIMIDIN-2-YL)ISOQUINOLINE-6-SULFONAMIDE]",200 nM,3540 nM,–
"O=S(=O)(Nc1nccs1)c1ccc2c(C3CCCN3C3CCOCC3)cccc2c1 (stereo not shown) [Example 102, 5-(1-(TETRAHYDRO-2H-PYRAN-4-YL)PYRROLIDIN-2-YL)-N-(THIAZOL-2-YL)NAPHTHALENE-2-SULFONAMIDE 2,2,2-TRIFLUOROACETATE]",110 nM,1540 nM,–
"COC(=O)c1cccc2cc(S(=O)(=O)Nc3ncns3)ccc12 [Example 318, METHYL 6-(N-(1,2,4-THIADIAZOL-5-YL)SULFAMOYL)-1-NAPHTHOATE]",> 10000 nM,37400 nM,32%
Cn1cncc1-c1cc(C(F)(F)F)ccc1-c1cccc2cc(S(=O)(=O)Nc3ccncn3)ccc12 [Example 123],50 nM,516 nM,–
"COc1cc(C(F)(F)F)ccc1-c1nccc2cc(S(=O)(=O)Nc3ncc(C#N)s3)ccc12 [Example 197, N-(5-CYANOTHIAZOL-2-YL)-1-(2-METHOXY-4-(TRIFLUOROMETHYL)PHENYL)ISOQUINOLINE-6-SULFONAMIDE]",2930 nM,3060 nM,–
"COc1cc(-c2cccc(F)c2)ccc1-c1nccc2cc(S(=O)(=O)Nc3nccs3)ccc12 [Example 202, 1-(3′-FLUORO-3-METHOXY-[1,1′-BIPHENYL]-4-YL)-N-(THIAZOL-2-YL)ISOQUINOLINE-6-SULFONAMIDE 2,2,2-TRIFLUOROACETATE]",340 nM,508 nM,–
"COc1ccc(C#N)cc1-c1nccc2cc(S(=O)(=O)Nc3ccncn3)ccc12 [Example 150, 1-(5-CYANO-2-METHOXYPHENYL)-N-(PYRIMIDIN-4-YL)ISOQUINOLINE-6-SULFONAMIDE]",120 nM,7190 nM,–
"Cc1cc(C#N)ccc1-c1nccc2cc(S(=O)(=O)Nc3nccs3)ccc12 [Example 210, 1-(4-CYANO-2-METHYLPHENYL)-N-(THIAZOL-2-YL)ISOQUINOLINE-6-SULFONAMIDE 2,2,2-TRIFLUOROACETATE]",140 nM,888 nM,–
"O=S(=O)(Nc1nccs1)c1ccc2c([C@H]3CCCN3C3CCOCC3)cccc2c1 [Example 104, (R)-5-(1-(TETRAHYDRO-2H-PYRAN-4-YL)PYRROLIDIN-2-YL)-N-(THIAZOL-2-YL)NAPHTHALENE-2-SULFONAMIDE COMPOUND WITH DIETHYLAMINE (1:1)]",80 nM,1990 nM,–
O=S(=O)(Nc1ncc(F)s1)c1ccc2c(-c3ccc(C(F)(F)F)cc3C3CCNCC3)cccc2c1 [Example 113],80 nM,118 nM,–
"COc1cc(C(F)(F)F)ccc1-c1nc(Cl)cc2cc(S(=O)(=O)Nc3nccs3)ccc12 [Example 219, 3-CHLORO-1-(2-METHOXY-4-(TRIFLUOROMETHYL)PHENYL)-N-(THIAZOL-2-YL)ISOQUINOLINE-6-SULFONAMIDE]",170 nM,796 nM,–
"COc1cc(F)ccc1-c1nncc2cc(S(=O)(=O)Nc3ncc(F)s3)ccc12 [Example 256, 1-(4-FLUORO-2-METHOXYPHENYL)-N-(5-FLUOROTHIAZOL-2-YL)PHTHALAZINE-6-SULFONAMIDE]",70 nM,840 nM,–
"O=S(=O)(Nc1nccs1)c1ccc2c(-c3ccc(C(F)(F)F)cc3Cl)ccnc2c1 [Example 278, 4-(2-CHLORO-4-(TRIFLUOROMETHYL)PHENYL)-N-(THIAZOL-2-YL)QUINOLINE-7-SULFONAMIDE]",220 nM,2020 nM,–
"Cn1cccc1-c1nccc2cc(S(=O)(=O)Nc3nccs3)ccc12 [Example 244, 1-(1-METHYL-1H-PYRROL-2-YL)-N-(THIAZOL-2-YL)ISOQUINOLINE-6-SULFONAMIDE]",1170 nM,11300 nM,–
Cc1cc2cnn(C)c2cc1-c1nccc2cc(S(=O)(=O)Nc3ccncn3)ccc12 [Example 165],5430 nM,> 30000 nM,–
"COc1ccccc1-c1ncc(F)c2cc(S(=O)(=O)Nc3nccs3)ccc12 [Example 211, 4-FLUORO-1-(2-METHOXYPHENYL)-N-(THIAZOL-2-YL)ISOQUINOLINE-6-SULFONAMIDE]",10 nM,251 nM,–
"COC(=N)c1cc(C(F)(F)F)ccc1-c1nccc2cc(S(=O)(=O)Nc3nccs3)ccc12 [Example 226, METHYL 2-(6-(N-(THIAZOL-2-YL)SULFAMOYL)ISOQUINOLIN-1-YL)-5-(TRIFLUOROMETHYL)BENZIMIDATE]",90 nM,600 nM,–
"COc1cc(C(F)(F)F)ccc1-c1ncc(F)c2cc(S(=O)(=O)Nc3ccncn3)ccc12 [Example 216, 4-FLUORO-1-(2-METHOXY-4-(TRIFLUOROMETHYL)PHENYL)-N-(PYRIMIDIN-4-YL)ISOQUINOLINE-6-SULFONAMIDE]",40 nM,559 nM,–

SMILES,IC50 (Nav 1.7 [1]),IC50 (Nav 1.7 [2]),Nav1.7 Single Point Data IWQ (at […]) (%) (Nav 1.7 [1]; at […])
"O=S(=O)(Nc1nccs1)c1ccc2c(-c3ccn(-c4ccccc4)c3)nccc2c1 [Example 207, 1-(1-PHENYL-1H-PYRROL-3-YL)-N-(THIAZOL-2-YL)ISOQUINOLINE-6-SULFONAMIDE 2,2,2-TRIFLUOROACETATE]",2100 nM,7290 nM,–
"COc1ccccc1-c1nccc2cc(S(=O)(=O)Nc3ccncn3)ccc12 [Example 140, 1-(2-METHOXYPHENYL)-N-(PYRIMIDIN-4-YL)ISOQUINOLINE-6-SULFONAMIDE]",90 nM,10700 nM,–
O=S(=O)(Nc1ccncn1)c1ccc2c(-c3ccc(C(F)(F)F)cc3C3=CCNC3)cccc2c1 [Example 119],20 nM,179 nM,–
O=S(=O)(Nc1ccncn1)c1ccc2c(-c3ccc(C(F)(F)F)cc3C3CCNCC3)cccc2c1 [Example 120],10 nM,125 nM,–
O=S(=O)(Nc1ccncn1)c1ccc2c(-c3ccc(C(F)(F)F)cc3C3(F)CNC3)cccc2c1 [Example 118],30 nM,652 nM,–
"O=S(=O)(Nc1ncns1)c1ccc2c(C3CCCN3)cccc2c1 (stereo not shown) [Example 95, 5-(PYRROLIDIN-2-YL)-N-(1,2,4-THIADIAZOL-5-YL)NAPHTHALENE-2-SULFONAMIDE 2,2,2-TRIFLUOROACETATE]",540 nM,7960 nM,–
"COc1ccc(F)cc1-c1nccc2cc(S(=O)(=O)Nc3ccncn3)ccc12 [Example 148, 1-(5-FLUORO-2-METHOXYPHENYL)-N-(PYRIMIDIN-4-YL)ISOQUINOLINE-6-SULFONAMIDE]",80 nM,2410 nM,–
"COc1cc(C(F)(F)F)ccc1-c1cncc2cc(S(=O)(=O)Nc3ccncn3)ccc12 [Example 285, 4-(2-METHOXY-4-(TRIFLUOROMETHYL)PHENYL)-N-(PYRIMIDIN-4-YL)ISOQUINOLINE-7-SULFONAMIDE HYDROCHLORIDE]",40 nM,580 nM,–
"O=S(=O)(Nc1nccs1)c1ccc2c(N3CCC(c4ccccc4)C3)nccc2c1 (stereo not shown) [Example 243, 1-(3-PHENYLPYRROLIDIN-1-YL)-N-(THIAZOL-2-YL)ISOQUINOLINE-6-SULFONAMIDE]",780 nM,10700 nM,–
Cn1ccnc1-c1cc(C(F)(F)F)ccc1-c1cccc2cc(S(=O)(=O)Nc3ncc(F)s3)ccc12 [Example 111],60 nM,332 nM,–
O=S(=O)(Nc1ncns1)c1ccc2c(C3CCCN3c3ccccn3)cccc2c1 (stereo not shown) [Example 96],80 nM,323 nM,–
"COc1cc(C#N)ccc1-c1ncc(F)c2cc(S(=O)(=O)Nc3ccncn3)ccc12 [Example 218, 1-(4-cyano-2-methoxyphenyl)-4-fluoro-N-(pyrimidin-4-yl)isoquinoline-6-sulfonamide]",70 nM,4630 nM,–
"COc1ccccc1-c1ccnc2cc(S(=O)(=O)Nc3nccs3)ccc12 [Example 277, 4-(2-METHOXYPHENYL)-N-(THIAZOL-2-YL)QUINOLINE-7-SULFONAMIDE]",70 nM,340 nM,–
"COc1ccc(Cl)cc1-c1nccc2cc(S(=O)(=O)Nc3ccncn3)ccc12 [Example 146, 1-(5-CHLORO-2-METHOXYPHENYL)-N-(PYRIMIDIN-4-YL)ISOQUINOLINE-6-SULFONAMIDE]",30 nM,1370 nM,–
"COc1cc(-c2cnn(C)c2)ccc1-c1nccc2cc(S(=O)(=O)Nc3nccs3)ccc12 [Example 203, 1-(2-METHOXY-4-(1-METHYL-1H-PYRAZOL-4-YL)PHENYL)-N-(THIAZOL-2-YL)ISOQUINOLINE-6-SULFONAMIDE]",310 nM,3290 nM,–
"COc1cc(C(F)(F)F)ccc1-c1nccc2cc(S(=O)(=O)Nc3ncncc3F)ccc12 [Example 183, N-(5-FLUOROPYRIMIDIN-4-YL)-1-(2-METHOXY-4-(TRIFLUOROMETHYL)PHENYL)ISOQUINOLINE-6-SULFONAMIDE]",670 nM,5870 nM,–
COc1cc(C(F)(F)F)ccc1-c1cccc2cc(S(=O)(=O)Nc3ncc(F)s3)ccc12 [Example 107],330 nM,3320 nM,–
"COCc1cc(C(F)(F)F)ccc1-c1nccc2cc(S(=O)(=O)Nc3nccs3)ccc12 [Example 225, 1-(2-(METHOXYMETHYL)-4-(TRIFLUOROMETHYL)PHENYL)-N-(THIAZOL-2-YL)ISOQUINOLINE-6-SULFONAMIDE]",30 nM,741 nM,–
O=S(=O)(Nc1nccs1)c1ccc2c(C3CCCN3Cc3ccccc3)cccc2c1 (stereo not shown) [Example 98],2220 nM,13000 nM,–
